Test [1] concerns the target T1, rMGD A (overexpressed spinach MGDG synthase) (Spinacia oleracea, UniProt Q9SM44).
T1 construct: Two mature forms of MGDG synthase are overexpressed in E. coli; additional initiation methionine (N); made in house; host or cells: E. coli BL21(DE3), plasmid pET-Y 3a; solubilised with CHAPS and partially purified on hydroxyapatite
T1 sequence (Q9SM44 99-522): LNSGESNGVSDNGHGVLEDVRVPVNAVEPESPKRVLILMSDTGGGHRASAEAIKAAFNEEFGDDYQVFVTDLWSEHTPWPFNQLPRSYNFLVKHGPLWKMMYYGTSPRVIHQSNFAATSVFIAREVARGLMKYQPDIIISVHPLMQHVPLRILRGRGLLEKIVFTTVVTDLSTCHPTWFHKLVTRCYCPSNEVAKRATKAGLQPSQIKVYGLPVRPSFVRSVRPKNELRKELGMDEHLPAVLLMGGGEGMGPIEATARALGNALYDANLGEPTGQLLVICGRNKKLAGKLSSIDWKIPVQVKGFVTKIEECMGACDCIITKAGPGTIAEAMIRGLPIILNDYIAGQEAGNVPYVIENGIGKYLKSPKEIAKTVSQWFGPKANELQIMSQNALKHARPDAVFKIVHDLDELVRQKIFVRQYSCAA
The test is described as follows: Galactosylation activity of partially purified recombinant MGDG synthase (rMGD A), measured with micelles and UDP-[14C]gal. It counts as biochemical. To be noted: for Inhibition of rMGD A activity (in words): overexpressed rMGD A; for activity at 150 µM: 150 μM NEM 10 min, % of control. As to the method:
The activity of the MGDG synthase is measured on various types of sample, depending on the model chosen: plastidial membrane, membrane fractions of E. coli overexpressing a recombinant MGDG synthase (rMGD A, 0.7 μg protein/assay, enzyme extracted beforehand from a plant (see Example 1)).
1.3 mM of phosphatidylglycerol (PG) and 160 μM of diacylglycerol (DAG) are dissolved in chloroform. After evaporating the solvent under argon, 200 μl of incubation medium containing 50 mM of MOPS-NaOH, pH 7.8, 4.5 mM OF CHAPS, 1 mM of DTT, 250 mM of KH2PO4/K2HPO4 and 250 mM of KCl are added and the medium is mixed vigorously so as to resuspend the lipids. 100 μl of fractions containing the MGDG synthase, in the incubation medium, are introduced then the medium is again mixed vigorously and then maintained at 20° C. for 1 h.
The reaction in the incubation mixture is then initiated by adding 1 mM of UDP-[^14C]gal (37 Bq/μmol). After 10 min to 1 h, the reaction is stopped by adding a chloroform/methanol mixture (1:2, v/v), the lipids are extracted in accordance with the method of Bligh et al (Can. J. Biochem. Physiol, 1959, 37, 911-917) and the radioactivity of the labeled galactolipids is determined by liquid scintillation counting as described in Covès et al. (FEBS lett., 1986, 208, 401-406). The activity is expressed in μmol of galactose incorporated/h/mg of protein.
The fractions of partially purified rMGD A are desalified by chromatography on a Biogel P6-DG (Bio-Rad) column (Pharmacia, C10/40 column, 30 ml of gel) equilibrated in DTT. Aliquots (200 μl) of the fractions are incubated for 40 minutes at 25° C. with gentle stirring, in the presence or absence of DTT. The galactosylation activity is then measured as specified above (see Example 3).
In order to obtain the results summarized in Table II, the rMGD A is desalified by chromatography on a Biogel P6-DG (Bio-Rad) column (Pharmacia, C10/40, column, 30 ml of gel) equilibrated in DTT. Aliquots (200 μl) of the fractions are incubated for 30 minutes at 25° C. with gentle stirring, followed by a 10 min incubation in the presence or absence of 150 μM NEM and then a 10 min incubation in the presence or absence of DTT. The galactosilyation activity is then measured as specified above (see Example 3).

The target of test [2] is T2, MGDG synthase partially purified from spinach leaf chloroplasts (Spinacia oleracea, UniProt Q9SM44).
T2 construct: the MGDG synthase partially purified from spinach leaf chloroplasts; host or cells: spinach leaf chloroplasts (envelope membranes)
T2 sequence (Q9SM44 99-522): T1 sequence (Q9SM44 99-522)
The following applies: chloroplast envelope enzyme, Maréchal et al., J. Biol. Chem., 1995; cited from earlier work.

With `CCN1C(=O)C=CC1=O` [NEM, N-ethylmaleimide], the “Inhibition of rMGD A activity (in words)” value in test [1] is “very sensitive”. Besides, the activity at 150 µM in test [1] (pre-incubation 30 min with DTT, no further DTT incubation, reaction + PG + DAG + UDP-gal) was 108%; in test [1] (pre-incubation 30 min with PG + DAG, then 10 mM DTT 10 min, reaction + UDP-gal), 60%; in test [1] (pre-incubation 30 min with PG, then 10 mM DTT 10 min, reaction + DAG + UDP-gal) it was 56%; in test [1] (pre-incubation 30 min with UDP-gal, then 10 mM DTT 10 min, reaction + PG + DAG), 32%; in test [1] (pre-incubation 30 min without addition, then 10 mM DTT 10 min, reaction + PG + DAG + UDP-gal) it was 35%. In test [2], the “Inhibition of the enzyme (in words)” value is recorded as “powerful inhibitors”.

Take `O[C@H](CS)[C@H](O)CS` (racemic) [DTT, dithiothreitol]: in test [1] (DTT removed on Biogel P6-DG column, DTT added back), the “Effect of DTT on rMGD A activity after desalification (in words)” value is on record as “maintains its activity”. For the same compound, the “Activity (%)” value in test [1] (desalified hydroxyapatite fraction + 1 mM DTT, 40 min at 25° C., percentage of the control (not desalified) activity) is reported as 75%; in test [1] (desalified hydroxyapatite fraction + 10 mM DTT, 40 min at 25° C., percentage of the control (not desalified) activity), 65%. Moreover, the activity at 10000 µM in test [1] (desalified rMGD A, pre-incubation 30 min without addition, no NEM, then 10 mM DTT 10 min, % of control (50 min in 10 mM DTT)) worked out at 101%. The “Protection of enzyme activity against oxidation (in words)” value in test [2] is “can protect the activity of the enzyme against oxidation”.

Consider `c1cnc2c(c1)ccc1cccnc12` [orthophenanthroline], for which the “Inhibition of rMGD A activity (in words)” value in test [1] is on record as “inhibited”. Besides, the “Activity (%)” value was 43% in test [1] (with orthophenanthroline, no other additions, initial activity (time 0) = 100); 27% in test [1] (with orthophenanthroline, other addition PG, initial activity (time 0) = 100); 17% in test [1] (with orthophenanthroline, other addition UDP-gal, initial activity (time 0) = 100); 92% in test [1] (with orthophenanthroline, other additions PG + DAG, initial activity (time 0) = 100). Moreover, the “Inhibition of the enzyme (in words)” value in test [2] is reported as “powerful inhibitors”.

The values above are taken from patent US6924092B1, “Screening method involving MGDG synthase” (Commissariat a L'Energie Atomique, priority 1999, dated 2005).
